Results on eleven compounds are retold here after patent publication US11242344B2, “(4-hydroxypyrrolidin-2-yl)-heterocyclic compounds and methods of use thereof” (Genentech, Inc., priority 2017, dated 2022).

One assay deals with VHL Elongin B/C complex (Homo sapiens (Human), UniProt P40337). The assay can be described thus: Fluorescence Polarization (FP) VHL Binding Assay. Particulars: VHL binding, FP assay; geometric mean where more than one measurement. The procedure, abridged: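 Readout is polarization of a TAMRA-coupled VHL ligand (1.67 nM final) displaced from the VHL(E55-D213)/Elongin B/C complex (2.64 nM final) after 1 h incubation at room temperature in pH 8.0 Tris buffer with 1% DMSO. Data normalized to no-VHL and compound-free controls, with compound fluorescence subtracted, and fitted by four-parameter curve for IC50.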
Chain of VHL Elongin B/C complex (P40337 whole entry, looked up): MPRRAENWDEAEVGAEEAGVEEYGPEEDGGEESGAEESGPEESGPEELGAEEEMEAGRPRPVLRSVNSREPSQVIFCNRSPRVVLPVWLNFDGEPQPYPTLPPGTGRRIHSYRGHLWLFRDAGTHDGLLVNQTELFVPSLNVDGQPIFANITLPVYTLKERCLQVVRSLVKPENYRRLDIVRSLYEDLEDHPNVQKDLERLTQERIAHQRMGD
Chain of VHL Elongin B/C complex (Q15370 whole entry partner, looked up): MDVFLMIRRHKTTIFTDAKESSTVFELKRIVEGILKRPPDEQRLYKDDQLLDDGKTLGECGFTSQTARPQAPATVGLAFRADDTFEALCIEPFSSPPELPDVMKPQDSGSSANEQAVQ
Chain of VHL Elongin B/C complex (Q15369 whole entry partner, looked up): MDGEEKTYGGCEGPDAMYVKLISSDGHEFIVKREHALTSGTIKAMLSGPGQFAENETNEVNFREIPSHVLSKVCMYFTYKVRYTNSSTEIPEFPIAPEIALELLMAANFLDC

For assay [1], the target named is NanoLuc VHL fusion protein (Homo sapiens (Human), UniProt P40337). The assay can be described thus: VHL HEK-293 BRET Assay (NanoBRET Target Engagement). It is filed as cell-based. Particulars: geometric mean where more than one measurement. Here is the method: The VHL NanoBRET™ Target Engagement Assay analyzes the apparent affinity of test compounds for VHL in cells by competitive displacement of a VHL NanoBRET™ tracer reversibly bound to a NanoLuc® VHL fusion protein stably expressed in the cells. Test compounds were transferred to the assay plate (384 Well White Non-Binding Corning Assay Plates (Corning-3574)) using an Echo 555 Liquid Handler (Labcyte) in 2.5 nL increments and, as appropriate, intermediate stock concentrations of compounds, in order to prepare a titration series. 50 nL of control compound (10 mM; parental unlabeled VHL antagonist; see structure below) and 50 nL of DMSO (negative control) were dispensed into the appropriate control wells. DMSO was backfilled to a final volume of 50 nL as required. 50 nl per well of 1 mM VHL NanoBRET™ Tracer in DMSO (NanoBRET™ Tracer-PEG2-590 (see structure below)) was transferred into each well using an Echo 555 (ultimately yielding a final concentration of 1 uM). HEK 293 RT VHL-NanoLuc® stable cells were cultured in DMEM High Glucose with Pyruvate, 10% fetal bovine serum, 2 mg/mL of Geneticin Selective Antibiotic (50 mg/ml) and 2 mM HEPES (1 M). Cells were seeded in Opti-MEM (Life Technologies-11058-021), 1.7×10^5 cells/mL, 40 μl per well into the assay plate, centrifuged at 500 rpm for 30 seconds and incubated for 2 hours. Max Signal control wells consisted of DMSO only treated wells. Minimum Signal control wells contained of 10 uM parental unlabeled VHL antagonist (control compound—see structure below). 3× Complete Substrate plus Inhibitor Solution was prepared in Opti-MEM (consists of a 1:166 dilution of NanoBRET™ Nano-Glo® Substrate plus a 1:500 dilution of Extracellular NanoLuc® Inhibitor in Opti-MEM), and 20 ul was dispensed into each well of the 384-well plate and centrifuged at 1000 rpm for 1 minute, then incubated for 2 minutes at room temperature. Background Signal control wells were prepared without tracer for background correction steps. Plates were read using a PerkinElmer Envision Reader (model 2104-0020) equipped with Luminescence option (Mirror: BRET2 Enh (PE Barcode 659), Emission Filter: Omega 610LP (Barcode 504), 2nd Emission Filter: Umbelliferone 460 (Barcode 207), Measurement height: 6.5 mm, Measurement time: 1 s). The raw BRET ratio values were calculated by dividing the acceptor emission value (610 nm) by the donor emission value (460 nm) for each sample. To correct for background, the BRET ratio in the absence of tracer (average of no-tracer control samples) was subtracted from the BRET ratio of each sample. Raw BRET units were converted to milliBRET units (mBU) by multiplying each raw BRET value by 1,000. The normalized NanoBRET™ signal was calculated relative to the Max Signal control wells (DMSO treated control wells) and the Minimum Signal control wells. Percentage inhibition was calculated relative to the Minimum Signal control and Maximum Signal control wells. IC50 values were derived by four parameter curve fitting using the Robust method.
Chain of NanoLuc VHL fusion protein (P40337 whole entry, looked up, the tested form may be a part): as the sequence (P40337 whole entry, looked up) above
Chain of NanoLuc VHL fusion protein (Q15370 whole entry partner, looked up, the tested form may be a part): as the sequence (Q15370 whole entry partner, looked up) above
Chain of NanoLuc VHL fusion protein (Q15369 whole entry partner, looked up, the tested form may be a part): as the sequence (Q15369 whole entry partner, looked up) above

Assay [2] deals with VHL co-expressed with Elongins B and C (Homo sapiens (Human), UniProt P40337). The assay can be described thus: Surface Plasmon Resonance Assay. The class given is binding. Particulars: SPR measured VHL affinity; geometric mean where more than one measurement. The procedure: Using a Biacore T200, […] tagged VHL co-expressed with Elongins B and C were immobilized to a Biacore SA chip in running buffer without DMSO. Compounds were tested individually at varying concentrations in running buffer (50 mM HEPES pH 7.2, 150 mM NaCl, 0.5 mM TCEP, 0.001% Tween 20, 0.2% PEG3350, 2% DMSO) at 20° C. Sensorgrams were run in order from low to high concentration using a flow rate of 80 μL/min. Association and disassociation times were varied depending on the estimated potency of the compound tested. […] Galdeano et al, J. Med. Chem. 2014, 57, 8657-8663, herein incorporated by reference) which retained greater than 75% of the activity over the course of the run. Analysis of the binding curves and determination of the kinetic parameters were done using evaluation software (Version 2.0, Biacore).
Chain of VHL co-expressed with Elongins B and C (P40337 whole entry, looked up): as the sequence (P40337 whole entry, looked up) above
Chain of VHL co-expressed with Elongins B and C (Q15370 whole entry partner, looked up): as the sequence (Q15370 whole entry partner, looked up) above
Chain of VHL co-expressed with Elongins B and C (Q15369 whole entry partner, looked up): as the sequence (Q15369 whole entry partner, looked up) above

Take `Cc1cc([C@@H](C(=O)N2C[C@H](O)C[C@H]2C2=NOC(C)(c3ccc(Br)cc3)N2)C(C)C)on1` (mixture of isomers) [Example 113.1, (2S)-1-((2S,4R)-2-(5-(4-Bromophenyl)-5-methyl-4,5-dihydro-1,2,4-oxadiazol-3-yl)-4-hydroxypyrrolidin-1-yl)-3-methyl-2-(3-methylisoxazol-5-yl)butan-1-one and (2R)-1-((2S,4R)-2-(5-(4-Bromophenyl)-5-methyl-4,5-dihydro-1,2,4-oxadiazol-3-yl)-4-hydroxypyrrolidin-1-yl)-3-methyl-2-(3-methylisoxazol-5-yl)butan-1-one]: the results for the IC50 (on VHL Elongin B/C complex; in assay [1]) were 70.6 µM and 96.9 µM, respectively. In assay [2], this compound registered a Kd of 24.1 µM.

On to `Cc1cc([C@H](C(=O)N2C[C@H](O)C[C@H]2C2=NO[C@@](C)(c3ccc(Br)cc3)N2)C(C)C)on1` (mixture of isomers) [Example 113.2, (2S)-1-((2S,4R)-2-(5-(4-Bromophenyl)-5-methyl-4,5-dihydro-1,2,4-oxadiazol-3-yl)-4-hydroxypyrrolidin-1-yl)-3-methyl-2-(3-methylisoxazol-5-yl)butan-1-one and (2R)-1-((2S,4R)-2-(5-(4-Bromophenyl)-5-methyl-4,5-dihydro-1,2,4-oxadiazol-3-yl)-4-hydroxypyrrolidin-1-yl)-3-methyl-2-(3-methylisoxazol-5-yl)butan-1-one], for which the IC50 on VHL Elongin B/C complex was 6.3 µM; in assay [1], 2.94 µM. In assay [2], this compound gave a Kd of 2.49 µM.

Consider `Cc1cc([C@@H](C(=O)N2C[C@H](O)C[C@H]2C2=NO[C@](C)(c3ccc(Br)cc3)N2)C(C)C)on1` (mixture of isomers) [Example 113.3, (2S)-1-((2S,4R)-2-(5-(4-Bromophenyl)-5-methyl-4,5-dihydro-1,2,4-oxadiazol-3-yl)-4-hydroxypyrrolidin-1-yl)-3-methyl-2-(3-methylisoxazol-5-yl)butan-1-one and (2R)-1-((2S,4R)-2-(5-(4-Bromophenyl)-5-methyl-4,5-dihydro-1,2,4-oxadiazol-3-yl)-4-hydroxypyrrolidin-1-yl)-3-methyl-2-(3-methylisoxazol-5-yl)butan-1-one], for which the figures for the IC50 (on VHL Elongin B/C complex; in assay [1]) were 400 µM and 100 µM, respectively. Besides, the Kd in assay [2] turned out to be 90.8 µM.

As for `Cc1cc([C@H](C(=O)N2C[C@H](O)C[C@H]2C2=NO[C@](C)(c3ccc(Br)cc3)N2)C(C)C)on1` (mixture of isomers) [Example 113.4, (2S)-1-((2S,4R)-2-(5-(4-Bromophenyl)-5-methyl-4,5-dihydro-1,2,4-oxadiazol-3-yl)-4-hydroxypyrrolidin-1-yl)-3-methyl-2-(3-methylisoxazol-5-yl)butan-1-one and (2R)-1-((2S,4R)-2-(5-(4-Bromophenyl)-5-methyl-4,5-dihydro-1,2,4-oxadiazol-3-yl)-4-hydroxypyrrolidin-1-yl)-3-methyl-2-(3-methylisoxazol-5-yl)butan-1-one], the figures for the IC50 (on VHL Elongin B/C complex; in assay [1]) were 2.28 µM and 2.92 µM, respectively. In assay [2], this compound had a dissociation constant (Kd) of 3.17 µM.

In the case of `Cc1cc([C@H](C(=O)N2C[C@H](O)C[C@H]2C2=NO[C@@](c3ccccc3)(C(F)(F)F)N2)C(C)C)on1` (mixture of isomers) [Example 114.1, (2S)-1-((2S,4R)-4-Hydroxy-2-(5-phenyl-5-(trifluoromethyl)-4,5-dihydro-1,2,4-oxadiazol-3-yl)pyrrolidin-1-yl)-3-methyl-2-(3-methylisoxazol-5-yl)butan-1-one and (2R)-1-((2S,4R)-4-Hydroxy-2-(5-phenyl-5-(trifluoromethyl)-4,5-dihydro-1,2,4-oxadiazol-3-yl)pyrrolidin-1-yl)-3-methyl-2-(3-methylisoxazol-5-yl)butan-1-one], the IC50 worked out at 400 µM on VHL Elongin B/C complex and 100 µM in assay [1]. The compound also gave a Kd in assay [2] of 150 µM.

On to `Cc1cc([C@H](C(=O)N2C[C@H](O)C[C@H]2C2=NO[C@](c3ccccc3)(C(F)(F)F)N2)C(C)C)on1` (mixture of isomers) [Example 114.2, (2S)-1-((2S,4R)-4-Hydroxy-2-(5-phenyl-5-(trifluoromethyl)-4,5-dihydro-1,2,4-oxadiazol-3-yl)pyrrolidin-1-yl)-3-methyl-2-(3-methylisoxazol-5-yl)butan-1-one and (2R)-1-((2S,4R)-4-Hydroxy-2-(5-phenyl-5-(trifluoromethyl)-4,5-dihydro-1,2,4-oxadiazol-3-yl)pyrrolidin-1-yl)-3-methyl-2-(3-methylisoxazol-5-yl)butan-1-one], for which the figures for the IC50 (at VHL Elongin B/C complex; in assay [1]) were 400 µM and 100 µM, respectively. This compound registered a Kd in assay [2] of 150 µM.

For the compound `Cc1cc([C@H](C(=O)N2C[C@H](O)C[C@H]2C2=NO[C@@](c3ccccc3)(C(F)(F)F)N2)C(C)C)on1` (mixture of isomers) [Example 114.3, (2S)-1-((2S,4R)-4-Hydroxy-2-(5-phenyl-5-(trifluoromethyl)-4,5-dihydro-1,2,4-oxadiazol-3-yl)pyrrolidin-1-yl)-3-methyl-2-(3-methylisoxazol-5-yl)butan-1-one and (2R)-1-((2S,4R)-4-Hydroxy-2-(5-phenyl-5-(trifluoromethyl)-4,5-dihydro-1,2,4-oxadiazol-3-yl)pyrrolidin-1-yl)-3-methyl-2-(3-methylisoxazol-5-yl)butan-1-one], the values for the IC50 (on VHL Elongin B/C complex; in assay [1]) were 47 µM and 48.8 µM, respectively. This compound yielded a Kd in assay [2] of 8.8 µM.

With `Cc1cc([C@H](C(=O)N2C[C@H](O)C[C@H]2C2=NO[C@](c3ccccc3)(C(F)(F)F)N2)C(C)C)on1` (mixture of isomers) [Example 114.4, (2S)-1-((2S,4R)-4-Hydroxy-2-(5-phenyl-5-(trifluoromethyl)-4,5-dihydro-1,2,4-oxadiazol-3-yl)pyrrolidin-1-yl)-3-methyl-2-(3-methylisoxazol-5-yl)butan-1-one and (2R)-1-((2S,4R)-4-Hydroxy-2-(5-phenyl-5-(trifluoromethyl)-4,5-dihydro-1,2,4-oxadiazol-3-yl)pyrrolidin-1-yl)-3-methyl-2-(3-methylisoxazol-5-yl)butan-1-one], the IC50 turned out to be 58.3 µM at VHL Elongin B/C complex and 59.9 µM in assay [1]. The compound further gave a Kd in assay [2] of 5.86 µM.

On to `Cc1ncsc1-c1ccc([C@]2(C)NC(C3C[C@@H](O)CN3C(=O)C(c3cnn(C)c3)C(C)C)=NC2=O)cc1` (single isomer, unassigned) [Example 110.1], for which the results for the IC50 (at VHL Elongin B/C complex; in assay [1]) were 20.6 µM and 28.1 µM, respectively. The same compound gave a Kd in assay [2] of 7.42 µM.

In the case of `Cc1ncsc1-c1ccc([C@]2(C)NC(C3C[C@@H](O)CN3C(=O)C(c3cnn(C)c3)C(C)C)=NC2=O)cc1` (single isomer, unassigned) [Example 110.2], the IC50 was at least 400 µM on VHL Elongin B/C complex and at least 100 µM in assay [1]. The compound also showed a Kd in assay [2] of 104 µM.

For `Cc1ncsc1-c1ccc([C@]2(C)NC(C3C[C@@H](O)CN3C(=O)C(c3cnn(C)c3)C(C)C)=NC2=O)cc1` (single isomer, unassigned) [Example 110.3], the IC50 is at least 400 µM on VHL Elongin B/C complex and at least 100 µM in assay [1]. This compound yielded a Kd in assay [2] of 150 µM.
